# Laboratory results published in patent publication US20230348465A1, “IBOGAINE ANALOGS AS THERAPEUTICS FOR NEUROLOGICAL AND PSYCHIATRIC DISORDERS” (The Trustees of Columbia University in the City of New York, priority 2020, published 2023).
# Where two headings read alike, the source gives them in different places.
# Columns and labels:
# rVMAT2 = biological target: T1, rVMAT2 (Rattus norvegicus, UniProt Q01827); assay: rVMAT2 screening assay: inhibition of uptake of the fluorescent substrate FFN206 in stably transfected rVMAT2-HEK cells; type: cell-based; settings: for Ki: read-out: VMAT2 Ki
# T1 construct: expressed in transfected cells; host or cells: HEK cells, stably transfected (rVMAT2-HEK)
# T1 sequence (Q01827 whole entry): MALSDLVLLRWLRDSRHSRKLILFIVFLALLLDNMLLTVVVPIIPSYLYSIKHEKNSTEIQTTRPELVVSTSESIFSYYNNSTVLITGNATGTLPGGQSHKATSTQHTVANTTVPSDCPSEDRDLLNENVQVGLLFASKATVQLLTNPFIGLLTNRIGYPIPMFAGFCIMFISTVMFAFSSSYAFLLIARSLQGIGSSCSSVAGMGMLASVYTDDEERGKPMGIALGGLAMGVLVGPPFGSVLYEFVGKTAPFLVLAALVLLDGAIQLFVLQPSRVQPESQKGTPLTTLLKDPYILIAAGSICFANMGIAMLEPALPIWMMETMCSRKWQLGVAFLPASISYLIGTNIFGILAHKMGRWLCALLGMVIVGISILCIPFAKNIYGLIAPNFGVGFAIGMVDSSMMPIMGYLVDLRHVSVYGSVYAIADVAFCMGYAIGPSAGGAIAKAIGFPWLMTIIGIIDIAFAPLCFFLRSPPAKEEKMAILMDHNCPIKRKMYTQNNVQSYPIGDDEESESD
# Procedure: (§1) Stably transfected hSERT-HEK and rVMAT2-HEK cellular cultures were maintained in Dulbecco’s Minimal Essential Medium (DMEM) with GlutaMAX (Gibco) with the following additions: 10% (v/v) Fetal Bovine Serum (FBS, Atlanta Biologicals), 100 U/mL Penicillin, and 10 µg/mL Streptomycin (Gibco). With regards to the former cell lineage, an additional ingredient, 500 µg/mLGeneticin (G418) (Sigma) was included to preserve the respective transgene.
# (§2) For both hSERT and rVMAT2 screening experiments, respective singly transfected cells were seeded at a density of 0.09 × 10^6 cells/well in poly-D-Lysine (Sigma) coated white solid-bottom 96-well plates. Growth was permitted for approximately 44 hours in said aqueous media and at an incubation environment of 37° C. and 5% Carbon Dioxide. At the beginning of the experiment, the cellular growth solution was aspirated, and individual cells were rinsed with 150 µL of 1× Dulbecco’s Phosphate Buffered Saline (PBS; HyClone). 63 µL of Experimental Media (consisting of the following contents: DMEM without phenol red but with 4.5 g/L of D-Glucose (Gibco), 1 % (v/v) FBS (Atlanta Biologicals), 100 U/mL Penicillin, and 10 µg/mLStreptomycin (Gibco)) with 2 × tiered concentrations of inhibitor (or DMSO, the vehicle of these experiments) were added to the respective wells. […] After a required incubation period of 30 minutes for proper fluorescent probe uptake, the contents of each well were aspirated and consequently, rinsed twice with 120 µL of PBS. A final solution of 120 µL of PBS is finally added to all corresponding wells for cell maintenance before undergoing fluorescence uptake reading by a BioTek H1MF plate reader.
# (§3) Numerical analysis of the collected experimental data preceded as accordingly. Respective inhibitor values were first subtracted from vehicular values to quantify the respective fluorescence uptake. This metric was then analyzed using the dose-response-inhibitor nonlinear curve fitting model ([inhibitor] vs response (three parameters)) as supplied by GraphPad Prism 6 software. For each inhibitor, the model supplied a respective IC50 ± SEM value (Table 1).
# [1] = Metabolic stability and noribogaine formation in rat liver microsomes (RLM), LC-MS/MS; settings: for percent remaining of parent compound: 10 µM, + NADPH; for CLh,int: 45 mg microsomal protein per gm liver; for % Remaining at 60 min (- NADPH): without NADPH; for %Remaining at 60 min (Buffer): buffer control, RLM column; for half-life at 10 µM: male, rat, microsomes, pH 7.4
# Procedure: (§4) Metabolism Studies. Metabolic stability of test compounds was evaluated in liver microsomes from rat (RLM) and human (HLM). This was accomplished by incubating test compounds with microsomes and monitoring disappearance of parent compound as well as metabolite formation over time using LC-MS/MS in Multiple Reaction Monitoring mode (MRM).
# (§5) Stock solutions of test compounds were prepared in DMSO at a concentration of 10 mM.
# (§6) From the above mix, 70 µL was added to individual wells of 96 well reaction plates and preincubated at 37° C. for 5 min. […] Reactions without NADPH and buffer controls (minus NADPH) at 0 min and 60 min were also incubated to rule out non-NADPH metabolism or chemical instability in the incubation buffer. All reactions were terminated using 100 µL of ice-cold acetonitrile containing internal standard (glipizide) at 0, 5, 15, 30 and 60 min.
# (§7) Samples were monitored for parent compounds disappearance and formation of metabolite in MRM mode using LC-MS/MS instrument (API-4000 with Waters UPLC).
# (§8) The percent remaining of test compounds and positive control in each sample was determined by considering peak area ratio in the 0 minute sample as 100%. The Half-life of compounds in microsomes is calculated by formula: […]
# (§9) In vitro intrinsic clearance (CL´int) (units in mL/min/kg) was calculated using the formula: […]
# (§10) * Indicates liver weight (gm) which varies species wise. For human, monkey, dog, rat and mouse the liver weight are 20 gm, 32 gm, 32 gm, 40 gm and 90 gm respectively.
# [2] = Metabolic stability and noribogaine formation in human liver microsomes (HLM), LC-MS/MS; settings: for percent remaining of parent compound / CLh,int / % Remaining at 60 min (+ NADPH) / % Remaining at 60 min (- NADPH): HLM; for percent remaining of parent compound: 10 µM, + NADPH; for CLh,int: 45 mg microsomal protein per gm liver; for % Remaining at 60 min (+ NADPH): summary line; for % Remaining at 60 min (- NADPH): without NADPH; for %Remaining at 60 min (Buffer): buffer control, HLM column; for half-life at 10 µM: human, microsomes, pH 7.4
# Procedure: as §4, §5, §6, §7, §8, §9, §10
# hSERT = biological target: T2, hSERT (Homo sapiens, UniProt P31645); assay: hSERT screening assay: inhibition of uptake of the fluorescent substrate APP+ in stably transfected hSERT-HEK cells; type: cell-based; settings: for IC50: hSERT-HEK cells, APP+ 1.1 µM, mean ± SEM, n ≥ 4, read-out: SERT IC50; for Ki: Cheng-Prusoff from IC50, Km (APP+) = 1.6 µM, read-out: SERT Ki
# T2 construct: expressed in transfected cells; host or cells: HEK cells, stably transfected (hSERT-HEK), kept under G418
# T2 sequence (P31645 whole entry): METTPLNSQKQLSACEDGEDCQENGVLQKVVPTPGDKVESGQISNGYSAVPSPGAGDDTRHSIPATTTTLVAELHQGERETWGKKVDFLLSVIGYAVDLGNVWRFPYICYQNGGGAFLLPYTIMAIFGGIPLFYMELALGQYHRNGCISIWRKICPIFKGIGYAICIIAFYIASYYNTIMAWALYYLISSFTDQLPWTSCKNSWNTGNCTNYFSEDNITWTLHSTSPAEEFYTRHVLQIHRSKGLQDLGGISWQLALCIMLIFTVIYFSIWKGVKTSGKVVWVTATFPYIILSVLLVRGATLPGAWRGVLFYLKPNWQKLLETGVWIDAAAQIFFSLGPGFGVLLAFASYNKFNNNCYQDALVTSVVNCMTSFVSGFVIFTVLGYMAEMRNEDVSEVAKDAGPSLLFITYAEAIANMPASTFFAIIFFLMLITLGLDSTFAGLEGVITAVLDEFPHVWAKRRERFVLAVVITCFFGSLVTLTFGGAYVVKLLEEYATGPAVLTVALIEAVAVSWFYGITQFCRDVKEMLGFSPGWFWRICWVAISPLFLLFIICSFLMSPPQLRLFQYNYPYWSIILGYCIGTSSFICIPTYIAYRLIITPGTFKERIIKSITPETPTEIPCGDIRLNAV
# Procedure: as §1, §2, §3
# [3] = rVMAT2-HEK cells, FFN206 0.75 µM, mean ± SEM, n ≥ 4, read-out: VMAT2 IC50
# [4] = ratio of potency to noribogaine
smiles,measurement,setting,value
CCC1CC2CC3c4[nH]c5ccc(OC)cc5c4CCN(C2)C13 (centres unmarked) [Ibogaine],IC50,rVMAT2,~4 µM
same,percent remaining of parent compound,"[1]; RLM, 0 min",100%
same,"CLh,int",[1]; RLM,18.4 L/h/kg
same,percent remaining of parent compound,"[1]; RLM, 5 min",86%
same,percent remaining of parent compound,"[1]; RLM, 15 min",56%
same,percent remaining of parent compound,"[1]; RLM, 30 min",23%
same,percent remaining of parent compound,"[1]; RLM, 60 min",1%
same,% Remaining at 60 min (- NADPH),[1]; RLM,104%
same,%Remaining at 60 min (Buffer),[1],103%
same,half-life at 10 µM,[1],8 min
same,percent remaining of parent compound,[2]; 0 min,100%
same,"CLh,int",[2],0.42 L/h/kg
same,percent remaining of parent compound,[2]; 5 min,104%
same,percent remaining of parent compound,[2]; 15 min,98%
same,percent remaining of parent compound,[2]; 30 min,94%
same,percent remaining of parent compound,[2]; 60 min,81%
same,% Remaining at 60 min (+ NADPH),[2],81%
same,% Remaining at 60 min (- NADPH),[2],98%
same,%Remaining at 60 min (Buffer),[2],103%
same,half-life at 10 µM,[2],> 60 min
"CCc1ccc2c(c1)c1c(n2C)C2CC3CC(CC)C2N(CC1)C3 (centres unmarked) [Compound 11, N-methyl-10-ethyl-ibogamine]",IC50,hSERT,0.91 ± 0.12 µM
same,IC50,rVMAT2; [3],0.75 ± 0.07 µM
"CCC1CC2CC3c4[nH]c5ccc(C(N)=O)cc5c4CCN(C2)C13 (centres unmarked) [Compound 2, Ibogamine-10-carboxamide]",IC50,hSERT,2.5 ± 0.29 µM
same,IC50,rVMAT2; [3],3 ± 0.57 µM
"CCC1CC2CC3c4[nH]c5ccc(OC)c(Br)c5c4CCN(C2)C13 (centres unmarked) [Compound 17, 9-Bromo-ibogaine]",Ki,hSERT,0.4 ± 0.09 µM
same,IC50,hSERT,0.67 ± 0.16 µM
same,times less potent than noribogaine at SERT,hSERT; [4],approximately 2.4
same,IC50,rVMAT2; [3],4.9 ± 0.87 µM
same,times weaker than noribogaine at VMAT2,rVMAT2; [4],~8.6
same,Ki,rVMAT2,3 ± 0.53 µM
CCOc1ccc2[nH]c3c(c2c1)CCN1CC2CC(CC)C1C3C2 (centres unmarked) [10-Ethoxy-ibogamine],"SERT inhibition, result in words",hSERT,only a weak inhibitor of SERT
same,IC50,hSERT,9 ± 1.1 µM
same,"VMAT2 inhibition, result in words",rVMAT2,potent VMAT2 inhibitor
same,"VMAT2 inhibition, result in words",rVMAT2; listed as 10-Ethoxy-ibogaine,nearly an order of magnitude more potent
same,IC50,rVMAT2; [3],0.08 ± 0.02 µM
same,Ki,rVMAT2,0.05 ± 0.01 µM
same,percent remaining of parent compound,"[1]; RLM, 0 min",100%
same,"CLh,int",[1]; RLM,26.7 L/h/kg
same,percent remaining of parent compound,"[1]; RLM, 5 min",77%
same,percent remaining of parent compound,"[1]; RLM, 15 min",42%
same,percent remaining of parent compound,"[1]; RLM, 30 min",3%
same,percent remaining of parent compound,"[1]; RLM, 60 min",0%
same,% Remaining at 60 min (+ NADPH),"[1]; RLM, summary line",0%
same,% Remaining at 60 min (- NADPH),[1]; RLM,88%
same,%Remaining at 60 min (Buffer),[1],88%
same,half-life at 10 µM,[1],6 min
same,percent remaining of parent compound,[2]; 0 min,100%
same,"CLh,int",[2],0.78 L/h/kg
same,percent remaining of parent compound,[2]; 5 min,103%
same,percent remaining of parent compound,[2]; 15 min,98%
same,percent remaining of parent compound,[2]; 30 min,85%
same,percent remaining of parent compound,[2]; 60 min,66%
same,% Remaining at 60 min (+ NADPH),[2],66%
same,% Remaining at 60 min (- NADPH),[2],106%
same,%Remaining at 60 min (Buffer),[2],88%
same,half-life at 10 µM,[2],> 60 min
"CCCOc1ccc2[nH]c3c(c2c1)CCN1CC2CC(CC)C1C3C2 (centres unmarked) [Compound 4, 10-Propoxy-ibogamine]",IC50,hSERT,3 ± 0.5 µM
"CCC1CC2CC3c4c(c5cc(O)ccc5n4CC)CCN(C2)C13 (centres unmarked) [Compound 13, N-ethyl-noribogaine]",IC50,hSERT,1.9 ± 0.2 µM
same,IC50,rVMAT2; [3],0.07 ± 0.01 µM
"CC[C@H]1C[C@H]2C[C@H]3c4[nH]c5ccc(O)cc5c4CCN(C2)[C@@H]13 [Noribogaine, reference compound]","SERT inhibition, result in words",hSERT,potent SERT inhibitor
same,Ki,"rVMAT2; Cheng-Prusoff from IC50, Km (FFN206) = […]",0.35 ± 0.04 µM
same,IC50,rVMAT2; [3],0.57 ± 0.08 µM
"CCC1CC2CC3c4c(c5ccccc5n4C)CCN(C2)C13 (centres unmarked) [Compound 6, N-methyl-ibogamine]",IC50,hSERT,0.08 ± 0.009 µM
same,IC50,rVMAT2; [3],1.5 ± 0.16 µM
"CCC1CC2CC3c4[nH]c5ccccc5c4CCN(C2)C13 (centres unmarked) [Compound 5, Ibogamine]",Ki,hSERT,0.2 ± 0.02 µM
same,IC50,hSERT,0.33 ± 0.04 µM
same,IC50,rVMAT2; [3],3 ± 0.55 µM
same,times weaker than noribogaine at VMAT2,rVMAT2; [4],approximately 5.3
same,Ki,rVMAT2,1.8 ± 0.34 µM
"CCC1CC2CC3c4c(c5cc(OC)ccc5n4C)CCN(C2)C13 (centres unmarked) [Compound 7, N-methyl-ibogaine]",IC50,hSERT,1.5 ± 0.13 µM
same,IC50,rVMAT2; [3],0.74 ± 0.11 µM
"CCOc1ccc2c(c1)c1c(n2C)C2CC3CC(CC)C2N(CC1)C3 (centres unmarked) [Compound 14, N-methyl-10-ethoxy-ibogamine]",IC50,hSERT,2.8 ± 0.38 µM
"CCC1CC2CC3c4[nH]c5cc(Br)c(OC)cc5c4CCN(C2)C13 (centres unmarked) [Compound 18, 11-Bromo-ibogaine]",IC50,hSERT,0.2 ± 0.03 µM
same,IC50,rVMAT2; [3],1 ± 0.15 µM
"CCC1CC2CC3c4c(c5cc(C#N)ccc5n4C)CCN(C2)C13 (centres unmarked) [Compound 10, N-methyl-ibogamine-10-carbonitrile]",IC50,hSERT,0.0051 ± 0.00083 µM
same,IC50,rVMAT2; [3],0.44 ± 0.05 µM
"CCC1CC2CC3c4c(c5cc(O)ccc5n4C)CCN(C2)C13 (centres unmarked) [Compound 8, N-methyl-noribogaine]",Ki,hSERT,0.035 ± 0.0067 µM
same,IC50,hSERT,0.059 ± 0.011 µM
same,times more potent than noribogaine at SERT,hSERT; [4],approximately 4.7
same,IC50,rVMAT2; [3],0.17 ± 0.03 µM
same,times more potent than noribogaine at VMAT2,rVMAT2; [4],approximately 3.4
same,Ki,rVMAT2,0.1 ± 0.02 µM
"CCC1CC2CC3c4[nH]c5ccc(OC)c(Cl)c5c4CCN(C2)C13 (centres unmarked) [Compound 19, 9-Chloro-ibogaine]",IC50,hSERT,1.2 ± 0.12 µM
same,IC50,rVMAT2; [3],18 ± 5.9 µM
"CCC1CC2CC3c4[nH]c5ccc(C#N)cc5c4CCN(C2)C13 (centres unmarked) [Compound 3, Ibogamine-10-carbonitrile]",IC50,hSERT,0.026 ± 0.0038 µM
same,IC50,rVMAT2; [3],3.3 ± 0.43 µM
